# Experimental data published in US7414048B2, “4,5-dihydro-isoxazole derivatives and their pharmaceutical use” (Janssen Pharmaceutica, N.V., priority 1998, dated 2008).
# Test system: T cell blast formation in human blood
# Assay: In vitro inhibition of T cell blast formation in human blood (human whole blood blast formation, PHA stimulated, flow cytometry)
# Format: cell-based
# Conditions: Test Dose 1 × 10^−5 (unit not given), 72 hours, mean where multiple measurements
# Experimental: Cells are collected after a 72 hours culture period at 37° C., supernatant is removed by centrifugation and red blood cells are lysed by a hypotonic buffer. The remaining white blood cells are collected in PBS containing propidium iodide. The blast formation is analyzed using a benchtop flow cytometer (Cytoron, Ortho) equipped with an argon-ion laser. […] When multiple measurements were performed, a mean value was calculated for the percentage inhibition of T cell blast formation.
row,SMILES,% Inhibition of T cell blast formation [%]
1,O=C(Nc1cccc2ccccc12)c1ccc(NC(=O)C2CC(c3cccnc3)=NO2)cc1 (centres unmarked) [Compound 266],85
2,O=C(Nc1ccc(Sc2ccccc2)cc1)C1CC(c2cccnc2)=NO1 (centres unmarked) [Compound 374],85

# Same assay, conditions: Test Dose 1 × 10^−6 (unit not given), 72 hours, mean where multiple measurements
row,SMILES,% Inhibition of T cell blast formation [%]
1,O=C(c1ccccc1)c1ccc(NC(=O)C2CC(c3cccnc3)=NO2)nc1 (centres unmarked) [Compound 371],62
2,CN(C)C(=O)c1ccc(CNC(=O)c2ccc(NC(=O)C3CC(c4cccnc4)=NO3)cc2)cc1 (centres unmarked) [Compound 426],82
3,O=C(c1ccc(NC(=O)C2CC(c3cccnc3)=NO2)cc1)c1ccc2ccccc2n1 (centres unmarked) [Compound 392],80
4,Nc1nc(-c2ccccc2)c(C(c2ccccc2)c2ccc(NC(=O)C3CC(c4cccnc4)=NO3)cc2)s1 (centres unmarked) [Compound 53],39
5,O=C(Nc1ccc(C(Nc2ccccn2)c2ccccc2)cc1)C1CC(c2cccnc2)=NO1 (centres unmarked) [Compound 99],83
6,O=C(NCc1ccc(F)cc1)c1ccc(NC(=O)C2CC(c3cccnc3)=NO2)cc1 (centres unmarked) [Compound 270],71
7,COc1cc(CNC(=O)c2ccc(NC(=O)C3CC(c4cccnc4)=NO3)cc2)cc(OC)c1OC (centres unmarked) [Compound 281],74
8,NC(=O)C(c1ccccc1)c1ccc(NC(=O)C2CC(c3cccnc3)=NO2)cc1 (centres unmarked) [Compound 312],93
9,O=C(c1ccc(NC(=O)C2CC(c3cccnc3)=NO2)cc1)c1cccs1 (centres unmarked) [Compound 490],58
10,COCCOC(c1ccccc1)c1ccc(NC(=O)C2CC(c3cccnc3)=NO2)cc1 (centres unmarked) [Compound 416],87
11,O=C(c1ccc(NC(=O)C2CC(c3cccnc3)=NO2)cc1)c1cccc(F)c1 (centres unmarked) [Compound 12],83
12,O=C(Nc1ccc(C(=NO)c2ccc3c(c2)OCO3)cc1)C1CC(c2cccnc2)=NO1 (centres unmarked) [Compound 429],86
13,COc1ccc(CNC(=O)c2ccc(NC(=O)C3CC(c4cccnc4)=NO3)cc2)c(OC)c1 (centres unmarked) [Compound 274],71
14,O=C(Nc1ccc(C(=NO)c2ccccn2)cc1)C1CC(c2cccnc2)=NO1 (centres unmarked) [Compound 439],79
15,O=C(Nc1ccc(C(Nc2cccc(F)c2)c2ccccc2)cc1)C1CC(c2cccnc2)=NO1 (centres unmarked) [Compound 214],62
16,O=C(c1ccc(NC(=O)C2CC(c3cccnc3)=NO2)cc1)c1ccccc1Cl (centres unmarked) [Compound 14],78
17,CC(C#N)(c1ccc(F)cc1)c1ccc(NC(=O)C2CC(c3cccnc3)=NO2)cc1F (centres unmarked) [Compound 39],67
18,CN1CCC(NC(c2ccccc2)c2ccc(NC(=O)C3CC(c4cccnc4)=NO3)cc2)CC1 (centres unmarked) [Compound 102],66
19,COc1cc(S(N)(=O)=O)ccc1NC(c1ccccc1)c1ccc(NC(=O)C2CC(c3cccnc3)=NO2)cc1 (centres unmarked) [Compound 119],54

row,SMILES,% Inhibition of T cell blast formation [%]
1,O=C(NCCc1ccccc1)c1ccc(NC(=O)C2CC(c3cccnc3)=NO2)cc1 (centres unmarked) [Compound 258],59
2,"CC(O)(c1ccccc1)c1ccc(NC(=O)C2CC(c3cccnc3)=NO2)cc1 (centres unmarked) [Compound 411, (A2)-4,5-dihydro-N-[4-(1-hydroxy-1-phenylethyl)phenyl]-3-(3-pyridinyl)-5-isoxazolecarboxamide]",77
3,"NC(c1ccccc1)c1ccc(NC(=O)[C@@H]2CC(c3cccnc3)=NO2)cc1 (stereo partly drawn) [Compound 206, [5S-(B)]-N-[4-(aminophenylmethyl)phenyl]4,5-dihydro-3-(3-pyridinyl)-5-isoxazolecarboxamide]",66
4,O=C(Nc1ccc(Nc2ccccc2)cc1)C1CC(c2cccnc2)=NO1 (centres unmarked) [Compound 377],85
5,CN1CCC(N(C)CC(=O)NC(c2ccccc2)c2ccc(NC(=O)C3CC(c4cccnc4)=NO3)cc2)CC1 (centres unmarked) [Compound 146],95
6,O=C(NCc1cnc2ccccc2c1)c1ccc(NC(=O)C2CC(c3cccnc3)=NO2)cc1 (centres unmarked) [Compound 291],78
7,O=C(NCc1cccc(C(F)(F)F)c1)c1ccc(NC(=O)C2CC(c3cccnc3)=NO2)cc1 (centres unmarked) [Compound 288],53
8,COc1cccc(CNC(=O)c2ccc(NC(=O)C3CC(c4cccnc4)=NO3)cc2)c1 (centres unmarked) [Compound 272],67
9,O=C(Nc1cccnc1)c1ccc(NC(=O)C2CC(c3cccnc3)=NO2)cc1 (centres unmarked) [Compound 263],59
10,O=C(c1ccc(NC(=O)C2CC(c3cccnc3)=NO2)cc1)c1ccc(F)cc1F (centres unmarked) [Compound 398],87
11,COc1ccc(OC)c(C(=O)c2ccc(NC(=O)C3CC(c4cccnc4)=NO3)cc2)c1 (centres unmarked) [Compound 395],77
12,O=C(NCc1cccs1)c1ccc(NC(=O)C2CC(c3cccnc3)=NO2)cc1 (centres unmarked) [Compound 289],64
13,CCCCOC(c1ccccc1)c1ccc(NC(=O)C2CC(c3cccnc3)=NO2)cc1.Cl (centres unmarked) [Compound 417],42
14,"O=C(c1ccc(NC(=O)C2CC(c3cccnc3)=NO2)cc1)c1ccccn1 (single isomer, unassigned) [Compound 394]",84
15,CCOC(=O)NC(c1ccccc1)c1ccc(NC(=O)C2CC(c3cccnc3)=NO2)cc1 (centres unmarked) [Compound 131],95
16,COc1ccccc1C(=O)c1ccc(NC(=O)C2CC(c3cccnc3)=NO2)cc1 (centres unmarked) [Compound 390],85
17,CN1N=C(c2ccc(NC(=O)C3CC(c4cccnc4)=NO3)cc2)CC1c1ccccc1 (centres unmarked) [Compound 459],77
18,"CC(O)(c1ccccc1)c1ccc(NC(=O)C2CC(c3cccnc3)=NO2)cc1 (centres unmarked) [Compound 510, (B1)-4,5-dihydro-N-[4-(1-hydroxy-1-phenylethyl)phenyl]-3-(3-pyridinyl)-5-isoxazolecarboxamide]",76

# Same assay, conditions: Test Dose 1 × 10^−7 (unit not given), 72 hours, mean where multiple measurements
row,SMILES,% Inhibition of T cell blast formation [%]
1,O=C(c1ccncc1)c1ccc(NC(=O)C2CC(c3cccnc3)=NO2)cc1 (centres unmarked) [Compound 388],74

# Same assay, conditions: Test Dose 3 × 10^−7 (unit not given), 72 hours, mean where multiple measurements
row,SMILES,% Inhibition of T cell blast formation [%]
1,Cc1cc(NC(c2ccccc2)c2ccc(NC(=O)C3CC(c4cccnc4)=NO3)cc2)no1 (centres unmarked) [Compound 162],46
2,O=C(Nc1ccc(C(=NO)c2c(F)cccc2F)cc1)C1CC(c2cccnc2)=NO1 (centres unmarked) [Compound 431],71
3,CN(C)C(=O)c1ccc(CNC(=O)c2ccc(NC(=O)C3CC(c4cccnc4)=NO3)cc2)cc1 (centres unmarked) [Compound 426],65
4,Nc1ccc(C(=O)c2ccc(NC(=O)C3CC(c4cccnc4)=NO3)cc2)cc1 (centres unmarked) [Compound 17],53
5,O=C(Nc1ccc(C(C(=O)NCCN2CCOCC2)c2ccccc2)cc1)C1CC(c2cccnc2)=NO1 (centres unmarked) [Compound 325],43
6,O=C(NCc1ccc2c(c1)OCO2)c1ccc(NC(=O)C2CC(c3cccnc3)=NO2)cc1 (centres unmarked) [Compound 295],35
7,O=C(c1ccc(NC(=O)C2CC(c3cccnc3)=NO2)cc1)c1ccc2c(c1)OCO2 (centres unmarked) [Compound 389],59
8,O=C(Nc1ccc(-c2nc(-c3ccccc3)cs2)cc1)C1CC(c2cccnc2)=NO1 (centres unmarked) [Compound 454],59
9,O=C(NC(c1ccccc1)c1ccc(NC(=O)C2CC(c3cccnc3)=NO2)cc1)c1c(F)cccc1F (centres unmarked) [Compound 158],64
10,COc1ccc(C(=NO)c2ccc(NC(=O)C3CC(c4cccnc4)=NO3)cc2)cc1OC (centres unmarked) [Compound 437],75
11,Cc1ccccc1/C=C/C(=O)c1ccc(NC(=O)C2CC(c3cccnc3)=NO2)cc1 (racemic) [Compound 475],56
12,O=C(/C=C/c1ccccc1F)c1ccc(NC(=O)C2CC(c3cccnc3)=NO2)cc1 (racemic) [Compound 473],72
13,CN(CC(N)=O)C(c1ccccc1)c1ccc(NC(=O)C2CC(c3cccnc3)=NO2)cc1 (centres unmarked) [Compound 163],56
14,CN1N=C(c2ccccc2)CC1c1ccc(NC(=O)C2CC(c3cccnc3)=NO2)cc1 (centres unmarked) [Compound 457],67
15,O=C(c1ccc(NC(=O)C2CC(c3cccnc3)=NO2)cc1)c1c(F)cccc1F (centres unmarked) [Compound 385],69
16,NC(=O)C(c1ccc(Cl)cc1Cl)c1ccc(NC(=O)C2CC(c3cccnc3)=NO2)cc1Cl (centres unmarked) [Compound 310],64
17,COc1cc(C(=NO)c2ccc(NC(=O)C3CC(c4cccnc4)=NO3)cc2)cc(OC)c1OC (centres unmarked) [Compound 436],78
18,O=C(Nc1ccc(-c2n[nH]c3cc(F)ccc23)cc1)C1CC(c2cccnc2)=NO1 (centres unmarked) [Compound 463],33
19,O=C(Nc1ccc(C(Nc2ccccc2)c2ccccc2)cc1)C1CC(c2cccnc2)=NO1 (centres unmarked) [Compound 113],37
20,CN(C)c1ccc(CNC(=O)c2ccc(NC(=O)C3CC(c4cccnc4)=NO3)cc2)cc1 (centres unmarked) [Compound 286],49
21,O=C(/C=C/c1ccccc1C(F)(F)F)c1ccc(NC(=O)C2CC(c3cccnc3)=NO2)cc1 (racemic) [Compound 471],54
22,COc1ccccc1C(O)c1ccc(NC(=O)C2CC(c3cccnc3)=NO2)cc1 (centres unmarked) [Compound 409],88
23,O=C(Nc1ccc(C(=O)N2CCN(c3ccccc3)CC2)cc1)C1CC(c2cccnc2)=NO1 (centres unmarked) [Compound 379],51
24,O=C(Cc1ccc(NC(=O)C2CC(c3cccnc3)=NO2)cc1)Nc1ccccc1 (centres unmarked) [Compound 451],80
25,O=C(Nc1ccc(C(=NO)c2cccc(OC(F)(F)F)c2)cc1)C1CC(c2cccnc2)=NO1 (centres unmarked) [Compound 430],67
